In the supplement of paper PMC10733146:

Legend:
Experiment in all cases: viability relative to DMSO control (fraction); higher = less drug effect (more viable cells)
Settings in all cases: 48 h
[1] = tested on: primary AML patient cells (S037)
Summary of the method: (§1)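 Compounds were pre-plated at five concentrations, one well each, in 384-well plates, and primary mononuclear tumour cells were plated on them at 4 × 10^4 cells per well. The cells, fresh or cryopreserved, had been Ficoll-isolated from blood or bone marrow or taken from processed lymph node. After 48 h at 37 °C and 5% CO2 in RPMI-1640 with penicillin/streptomycin, L-glutamine and human serum, viability was read as CellTiter-Glo luminescence relative to the median of 16 inner DMSO wells.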

[2] = tested on: primary ALL patient cells (S088)
Summary of the method: as §1

[3] = tested on: primary AML patient cells (S085)
Summary of the method: as §1

[4] = tested on: primary CLL patient cells (S031)
Summary of the method: as §1

[5] = tested on: primary B-PLL patient cells (S016)
Summary of the method: as §1

[6] = tested on: primary DLBCL patient cells (S082)
Summary of the method: as §1

[7] = tested on: primary AML patient cells (S060)
Summary of the method: as §1

[8] = tested on: primary AML patient cells (S019)
Summary of the method: as §1

[9] = tested on: primary DLBCL patient cells (S076)
Summary of the method: as §1

[10] = tested on: primary T-NHL patient cells (S058)
Summary of the method: as §1

[11] = tested on: primary AML patient cells (S011)
Summary of the method: as §1

[12] = tested on: primary AML patient cells (S071)
Summary of the method: as §1

[13] = tested on: primary FL patient cells (S087)
Summary of the method: as §1

[14] = tested on: primary DLBCL patient cells (S049)
Summary of the method: as §1

[15] = tested on: primary AML patient cells (S091)
Summary of the method: as §1

[16] = tested on: primary MCL patient cells (S041)
Summary of the method: as §1

[17] = tested on: primary AML patient cells (S089)
Summary of the method: as §1

Nc1nc(F)nc2c1ncn2[C@@H]1O[C@H](CO)[C@@H](O)[C@@H]1O [Fludarabine]
viability ([1]; 0.016 µM): 1.25
viability ([1]; 0.08 µM): 0.999
viability ([1]; 0.4 µM): 1.18
viability ([1]; 2 µM): 0.643
viability ([1]; 10 µM): 0.455
viability ([2]; 0.016 µM): 1
viability ([2]; 0.08 µM): 0.975
viability ([2]; 0.4 µM): 0.715
viability ([2]; 2 µM): 0.283
viability ([2]; 10 µM): 0.2
viability ([3]; 0.016 µM): 1.02
viability ([3]; 0.08 µM): 1.05
viability ([3]; 0.4 µM): 0.561
viability ([3]; 2 µM): 0.172
viability ([3]; 10 µM): 0.112
viability ([4]; 0.016 µM): 1.05
viability ([4]; 0.08 µM): 1.02
viability ([4]; 0.4 µM): 0.779
viability ([4]; 2 µM): 0.276
viability ([4]; 10 µM): 0.0672
viability ([5]; 0.016 µM): 1.08
viability ([5]; 0.08 µM): 1.01
viability ([5]; 0.4 µM): 0.929
viability ([5]; 2 µM): 0.535
viability ([5]; 10 µM): 0.0968
viability ([6]; 0.016 µM): 1.03
viability ([6]; 0.08 µM): 0.94
viability ([6]; 0.4 µM): 0.908
viability ([6]; 2 µM): 0.588
viability ([6]; 10 µM): 0.429
viability ([7]; 0.016 µM): 1.02
viability ([7]; 0.08 µM): 1.01
viability ([7]; 0.4 µM): 1.06
viability ([7]; 2 µM): 1.03
viability ([7]; 10 µM): 0.89
viability ([8]; 0.016 µM): 1.17
viability ([8]; 0.08 µM): 0.967
viability ([8]; 0.4 µM): 0.605
viability ([8]; 2 µM): 0.301
viability ([8]; 10 µM): 0.181
viability ([9]; 0.016 µM): 1.05
viability ([9]; 0.08 µM): 1.07
viability ([9]; 0.4 µM): 0.772
viability ([9]; 2 µM): 0.373
viability ([9]; 10 µM): 0.203
viability ([10]; 0.016 µM): 1.15
viability ([10]; 0.08 µM): 1.05
viability ([10]; 0.4 µM): 0.829
viability ([10]; 2 µM): 0.288
viability ([10]; 10 µM): 0.133
viability ([11]; 0.016 µM): 0.942
viability ([11]; 0.08 µM): 0.773
viability ([11]; 0.4 µM): 0.543
viability ([11]; 2 µM): 0.255
viability ([11]; 10 µM): 0.0686
viability ([12]; 0.016 µM): 0.997
viability ([12]; 0.08 µM): 0.973
viability ([12]; 0.4 µM): 0.491
viability ([12]; 2 µM): 0.195
viability ([12]; 10 µM): 0.135
viability ([13]; 0.016 µM): 1
viability ([13]; 0.08 µM): 0.979
viability ([13]; 0.4 µM): 0.871
viability ([13]; 2 µM): 0.661
viability ([13]; 10 µM): 0.463
viability ([14]; 0.016 µM): 1.12
viability ([14]; 0.08 µM): 1.11
viability ([14]; 0.4 µM): 1.04
viability ([14]; 2 µM): 0.775
viability ([14]; 10 µM): 0.375
viability ([15]; 0.016 µM): 0.958
viability ([15]; 0.08 µM): 1
viability ([15]; 0.4 µM): 0.737
viability ([15]; 2 µM): 0.405
viability ([15]; 10 µM): 0.361
viability ([16]; 0.016 µM): 1.05
viability ([16]; 0.08 µM): 1.01
viability ([16]; 0.4 µM): 0.993
viability ([16]; 2 µM): 0.647
viability ([16]; 10 µM): 0.149
viability ([17]; 0.016 µM): 0.949
viability ([17]; 0.08 µM): 1.18
viability ([17]; 0.4 µM): 0.878
viability ([17]; 2 µM): 0.597
viability ([17]; 10 µM): 0.401
